Earlier results as cited in US20100008923A1, “Organic Compounds” (Novartis AG, priority 2006, published 2010).

What was measured:
[1] = for Potential side effects at upper limits: at upper limit of daily intake
[2] = system: HDAC; conditions: Kwon et al. (1998)

Row | Compound | Upper limit of daily intake [1] | Potential side effects at upper limits [1] | HDAC inhibition [2]
1 | Cc1ncc(CO)c(CO)c1O [B6, pyridoxine] | Above 100 mg |  | 
2 | Nc1nc2ncc(CNc3ccc(C(=O)N[C@@H](CCC(=O)O)C(=O)O)cc3)nc2c(=O)[nH]1 [B9, folic acid] |  | No known | 
3 | O=C(O)c1cccnc1 [B3, nicotinic acid] | Above 3000 mg | Liver problems | 
4 | cyanocobalamin [B12] |  | No known | 
5 | depudecin |  |  | inhibit HDAC at micromolar concentrations
